Measurements from paper PMC7202735 (Journal of medicinal chemistry, 2018).

Key:
MG63 cells = experiment: Wound healing scratch assay, MG63; type: cell-based, human; settings: MG63 cell line, Figure 2d
endothelial HUVEC cells = experiment: Angiogenesis assay: endothelial tube formation on matrigel; type: cell-based, human; settings: 0.5 μM and 1 μM, 5 hours
CB1 = settings: cited from earlier work
143B cells = experiment: Wound healing scratch assay, 143B; type: cell-based, human; settings: 143B cell line, with rimonabant, Supplementary Figure S4
HOS, 143B and MG63 cells = type: cell-based, human; settings: for induction of apoptosis as compared to no treatment control: all three cell lines, 12.5 μM; for apoptotic activity as compared to control: antagonist alone, supplementary tables 2–4
[1] = target: T1, Fatty acid amide hydrolase (FAAH) (Sus scrofa, UniProt Q9TUI8); settings: cited from earlier work
T1 sequence (Q9TUI8 1-579): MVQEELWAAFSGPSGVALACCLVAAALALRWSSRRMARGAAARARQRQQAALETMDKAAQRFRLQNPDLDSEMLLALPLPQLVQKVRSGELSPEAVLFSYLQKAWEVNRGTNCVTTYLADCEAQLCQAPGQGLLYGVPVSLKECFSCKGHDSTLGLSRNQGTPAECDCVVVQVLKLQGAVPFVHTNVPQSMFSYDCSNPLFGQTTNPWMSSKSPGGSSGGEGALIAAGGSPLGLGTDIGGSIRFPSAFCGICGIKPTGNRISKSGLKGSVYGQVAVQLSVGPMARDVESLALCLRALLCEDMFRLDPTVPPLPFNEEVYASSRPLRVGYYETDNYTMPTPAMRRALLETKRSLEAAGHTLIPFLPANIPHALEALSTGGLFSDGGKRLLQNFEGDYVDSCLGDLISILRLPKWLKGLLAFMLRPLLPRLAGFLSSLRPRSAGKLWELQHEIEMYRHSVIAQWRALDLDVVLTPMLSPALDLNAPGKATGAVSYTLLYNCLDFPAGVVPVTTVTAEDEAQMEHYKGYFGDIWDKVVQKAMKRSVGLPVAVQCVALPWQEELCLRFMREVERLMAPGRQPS

143B = experiment: Cell cycle analysis by propidium iodide staining, 143B; type: cell-based, human; settings: treated 24 hours

CC/C=C\C/C=C\C/C=C\CC1OC1C/C=C\C/C=C\CCC(=O)NC(C)CO (stereo not drawn) [10,11-EDP-IA, (4Z,7Z)-N-(1-hydroxypropan-2-yl)-9-(3-((2Z,5Z,8Z)-undeca-2,5,8-trien-1-yl)oxiran-2-yl)nona-4,7-dienamide]
restriction in wound healing as compared to the control (MG63 cells): slightly poorer than the control | tube formation as compared to the vehicle control (endothelial HUVEC cells): Restriction of tube formation

CCCCCC=CCC=CCC=CCC=CCCCC(=O)NC(C)CO (single isomer, unassigned) [S isomers]
CB1 binding, fold lower as compared to AEA (CB1): 2 fold

CC/C=C\C/C=C\C/C=C\CC1OC1C/C=C\C/C=C\CCC(=O)NCCO (stereo not drawn) [10,11-EDP-EA, (4Z,7Z)-N-(2-hydroxyethyl)-9-(3-((2Z,5Z,8Z)-undeca-2,5,8-trien-1-yl)oxiran-2-yl)nona-4,7-dienamide]
tube formation as compared to the vehicle control (endothelial HUVEC cells): Restriction of tube formation | reduction of cell migration in presence of CB1 receptor antagonist (143B cells): completely abolished

CCCCCC=CCC=CCC=CCC=CCCCC(=O)NC(C)CO (single isomer, unassigned) [R isomer]
CB1 binding, fold higher as compared to AEA (CB1): 4 fold

CC/C=C\C/C=C\C/C=C\C/C=C\C/C=C\C/C=C\CCC(=O)O [DHA, docosahexaenoic acid]
induction of apoptosis as compared to no treatment control (HOS, 143B and MG63 cells): no induction of apoptosis

CCC1OC1C/C=C\C/C=C\C/C=C\C/C=C\C/C=C\CCC(=O)NCCO (stereo not drawn) [19,20-EDP-EA]
rate of hydrolysis [1]: 150 pmol min−1 mg protein−1

CC/C=C\C/C=C\C/C=C\CC1OC1C/C=C\C/C=C\CCC(=O)NC1CC1 (stereo not drawn) [10,11-EDP-CA, (4Z,7Z)-N-cyclopropyl-9-(3-((2Z,5Z,8Z)-undeca-2,5,8-trien-1-yl)oxiran-2-yl)nona-4,7-dienamide]
restriction in wound healing as compared to the control (MG63 cells): comparable to 10,11-EDP-EA | tube formation as compared to the vehicle control (endothelial HUVEC cells): Restriction of tube formation

CCCCC/C=C\C/C=C\C/C=C\C/C=C\CCCC(=O)NCCO [AEA, arachidonoyl ethanolamide]
induction of apoptosis as compared to no treatment control (HOS, 143B and MG63 cells): no induction of apoptosis

CCCCC/C=C\C/C=C\C/C=C\C/C=C\CCCC(=O)O [AA, arachidonic acid]
induction of apoptosis as compared to no treatment control (HOS, 143B and MG63 cells): no induction of apoptosis

CC/C=C\C/C=C\C/C=C\C/C=C\C/C=C\C/C=C\CCC(=O)NCCO [DHEA, docosahexaenoylethanolamide]
induction of apoptosis as compared to no treatment control (HOS, 143B and MG63 cells): no induction of apoptosis

CC/C=C\C/C=C\C/C=C\CC1OC1C/C=C\C/C=C\CCC(=O)NCCCO (stereo not drawn) [10,11-EDP-NA, (4Z,7Z)-N-(3-hydroxypropyl)-9-(3-((2Z,5Z,8Z)-undeca-2,5,8-trien-1-yl)oxiran-2-yl)nona-4,7-dienamide]
percentage of cells in S (143B): slight suppression | restriction in wound healing as compared to the control (MG63 cells): slightly poorer than the control | tube formation as compared to the vehicle control (endothelial HUVEC cells): Restriction of tube formation

Cc1c(C(=O)NN2CCCCC2)nn(-c2ccc(Cl)cc2Cl)c1-c1ccc(Cl)cc1 [rimonabant]
apoptotic activity as compared to control (HOS, 143B and MG63 cells): very limited apoptotic activity

COc1ccc(C(=O)c2c(C)n(CCN3CCOCC3)c3cc(I)ccc23)cc1 [AM 630]
apoptotic activity as compared to control (HOS, 143B and MG63 cells): very limited apoptotic activity
